# In paper PMC11882969 (Nature Communications, 2025):
# Read-outs that look alike come from different tables or passages of the source.
# Legend:
# CB1 (rCB1) [1] = target: T1, CB1 (rCB1) (Rattus norvegicus, UniProt P20272); experiment: Single-point radioligand displacement screen; assay type: binding; settings: 10 µM, 1 µM or 300 nM by cell colour (not visible)
# hCB1 = hCB1 (Homo sapiens, UniProt P21554); experiment: bioSensAll ebBRET signaling profiling, hCB1; assay type: cell-based; set-up: host or cells: HEK293SL cells, transient PEI transfection; settings: for Barr2+GRK2 hCB1 response: Barr2+GRK2 biosensor; for Gi1 hCB1 / GoB hCB1: single replicate values, FigS6a; for EC50: hCB1 GoB; for Emax: normalized to CP-55,940
# Chain of hCB1 (P21554 whole entry): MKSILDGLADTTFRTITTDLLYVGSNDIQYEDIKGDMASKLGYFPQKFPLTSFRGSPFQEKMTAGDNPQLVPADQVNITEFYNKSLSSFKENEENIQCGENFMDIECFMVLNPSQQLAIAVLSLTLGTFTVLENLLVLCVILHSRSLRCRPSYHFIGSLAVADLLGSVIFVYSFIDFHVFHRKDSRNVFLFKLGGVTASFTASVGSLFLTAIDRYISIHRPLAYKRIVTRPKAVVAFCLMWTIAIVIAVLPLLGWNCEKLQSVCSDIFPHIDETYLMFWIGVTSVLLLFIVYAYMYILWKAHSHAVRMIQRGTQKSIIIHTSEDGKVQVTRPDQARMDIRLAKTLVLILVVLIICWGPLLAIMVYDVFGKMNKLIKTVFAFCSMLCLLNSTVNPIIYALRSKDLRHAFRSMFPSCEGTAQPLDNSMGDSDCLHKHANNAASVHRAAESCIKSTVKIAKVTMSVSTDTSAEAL
# CB1 (rCB1) [2] = target: T1, CB1 (rCB1); experiment: Radioligand competition binding, [3H]-CP-55,940, rat brain membranes; settings: rCB1
# T1 sequence (P20272 whole entry): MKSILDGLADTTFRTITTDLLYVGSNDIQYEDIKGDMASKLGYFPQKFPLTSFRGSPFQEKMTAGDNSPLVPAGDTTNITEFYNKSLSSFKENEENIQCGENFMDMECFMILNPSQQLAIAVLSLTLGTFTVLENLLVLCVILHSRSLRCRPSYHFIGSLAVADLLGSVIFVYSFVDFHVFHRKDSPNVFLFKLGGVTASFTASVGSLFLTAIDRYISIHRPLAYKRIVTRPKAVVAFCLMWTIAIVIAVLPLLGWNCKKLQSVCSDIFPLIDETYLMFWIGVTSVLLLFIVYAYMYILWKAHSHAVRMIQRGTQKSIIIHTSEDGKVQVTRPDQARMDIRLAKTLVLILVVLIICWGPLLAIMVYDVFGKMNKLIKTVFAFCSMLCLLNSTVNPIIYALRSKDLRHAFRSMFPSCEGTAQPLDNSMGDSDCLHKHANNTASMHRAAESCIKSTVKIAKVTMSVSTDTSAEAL
structure (smiles),measurement,setting,value
Cn1nc(-c2nnc(C(C)(C)Oc3ccc(C(F)(F)F)cc3)o2)c2ccccc2c1=O [‘2153],"% 1H-CP-55,940 displacement (mean) from single point screen",CB1 (rCB1) [1],89.82%
same,Barr2+GRK2 hCB1 response,hCB1; Log [Compound] (M) -4.22186,52.3115
same,Barr2+GRK2 hCB1 response,hCB1; Log [Compound] (M) -4.63927,1.898
same,Barr2+GRK2 hCB1 response,hCB1; Log [Compound] (M) -5.05788,-31.9237
same,Barr2+GRK2 hCB1 response,hCB1; Log [Compound] (M) -5.47381,-49.7918
same,Barr2+GRK2 hCB1 response,hCB1; Log [Compound] (M) -5.89285,-32.2428
same,Barr2+GRK2 hCB1 response,hCB1; Log [Compound] (M) -6.31878,-30.3284
same,Barr2+GRK2 hCB1 response,hCB1; Log [Compound] (M) -6.72585,-23.6278
same,Barr2+GRK2 hCB1 response,hCB1; Log [Compound] (M) -7.14267,-46.282
same,Barr2+GRK2 hCB1 response,hCB1; Log [Compound] (M) -7.55284,-43.4104
same,Barr2+GRK2 hCB1 response,hCB1; Log [Compound] (M) -8,-60.3212
same,Barr2+GRK2 hCB1 response,hCB1; Log [Compound] (M) -8.22186,12.7465
same,Barr2+GRK2 hCB1 response,hCB1; Log [Compound] (M) -8.39794,-37.9861
same,Barr2+GRK2 hCB1 response,hCB1; Log [Compound] (M) -8.68787,-0.01644
same,Barr2+GRK2 hCB1 response,hCB1; Log [Compound] (M) -9.15521,-27.1376
same,Barr2+GRK2 hCB1 response,hCB1; Log [Compound] (M) -9.61989,-19.4799
same,Barr2+GRK2 hCB1 response,hCB1; Log [Compound] (M) -10.0969,-46.6011
same,Barr2+GRK2 hCB1 response,hCB1; Log [Compound] (M) -10.5529,-22.3515
same,Barr2+GRK2 hCB1 response,hCB1; Log [Compound] (M) -11.0177,-18.8417
same,Barr2+GRK2 hCB1 response,hCB1; Log [Compound] (M) -11.4949,-32.5619
same,Barr2+GRK2 hCB1 response,hCB1; Log [Compound] (M) -11.9208,-20.4371
same,Barr2+GRK2 hCB1 response,hCB1; Log [Compound] (M) -12.3979,-30.0093
same,Barr2+GRK2 hCB1 response,hCB1; Log [Compound] (M) -12.8861,-33.2
same,Barr2+GRK2 hCB1 response,hCB1; Log [Compound] (M) -13.3979,30.2955
same,Gi1 hCB1,hCB1; Log [Compound] (M) -4.22186,75.7197
same,GoB hCB1,hCB1; Log [Compound] (M) -4.22186,87.0618
same,Gi1 hCB1,hCB1; Log [Compound] (M) -4.63927,62.7492
same,GoB hCB1,hCB1; Log [Compound] (M) -4.63927,68.3981
same,Gi1 hCB1,hCB1; Log [Compound] (M) -5.05788,53.1046
same,GoB hCB1,hCB1; Log [Compound] (M) -5.05788,59.4743
same,Gi1 hCB1,hCB1; Log [Compound] (M) -5.47381,46.6906
same,GoB hCB1,hCB1; Log [Compound] (M) -5.47381,51.6096
same,Gi1 hCB1,hCB1; Log [Compound] (M) -5.89285,39.3106
same,GoB hCB1,hCB1; Log [Compound] (M) -5.89285,42.3906
same,Gi1 hCB1,hCB1; Log [Compound] (M) -6.31878,39.2789
same,GoB hCB1,hCB1; Log [Compound] (M) -6.31878,35.0814
same,Gi1 hCB1,hCB1; Log [Compound] (M) -6.72585,25.5166
same,GoB hCB1,hCB1; Log [Compound] (M) -6.72585,29.2133
same,Gi1 hCB1,hCB1; Log [Compound] (M) -7.14267,15.7294
same,GoB hCB1,hCB1; Log [Compound] (M) -7.14267,18.1713
same,Gi1 hCB1,hCB1; Log [Compound] (M) -7.55284,6.592
same,GoB hCB1,hCB1; Log [Compound] (M) -7.55284,8.536
same,Gi1 hCB1,hCB1; Log [Compound] (M) -8,0.6052
same,GoB hCB1,hCB1; Log [Compound] (M) -8,0.9487
same,Gi1 hCB1,hCB1; Log [Compound] (M) -8.22186,7.605
same,GoB hCB1,hCB1; Log [Compound] (M) -8.22186,6.383
same,Gi1 hCB1,hCB1; Log [Compound] (M) -8.39794,-1.77
same,GoB hCB1,hCB1; Log [Compound] (M) -8.39794,-8.426
same,Gi1 hCB1,hCB1; Log [Compound] (M) -8.68787,-5.112
same,GoB hCB1,hCB1; Log [Compound] (M) -8.68787,-5.249
same,Gi1 hCB1,hCB1; Log [Compound] (M) -9.15521,-4.764
same,GoB hCB1,hCB1; Log [Compound] (M) -9.15521,-4.208
same,Gi1 hCB1,hCB1; Log [Compound] (M) -9.61989,-4.051
same,GoB hCB1,hCB1; Log [Compound] (M) -9.61989,-5.197
same,Gi1 hCB1,hCB1; Log [Compound] (M) -10.0969,-5.445
same,GoB hCB1,hCB1; Log [Compound] (M) -10.0969,-5.371
same,Gi1 hCB1,hCB1; Log [Compound] (M) -10.5529,-5.27
same,GoB hCB1,hCB1; Log [Compound] (M) -10.5529,-5.926
same,Gi1 hCB1,hCB1; Log [Compound] (M) -11.0177,-5.413
same,GoB hCB1,hCB1; Log [Compound] (M) -11.0177,-5.284
same,Gi1 hCB1,hCB1; Log [Compound] (M) -11.4949,-5.698
same,GoB hCB1,hCB1; Log [Compound] (M) -11.4949,-6.413
same,Gi1 hCB1,hCB1; Log [Compound] (M) -11.9208,-5.872
same,GoB hCB1,hCB1; Log [Compound] (M) -11.9208,-5.041
same,Gi1 hCB1,hCB1; Log [Compound] (M) -12.3979,-4.415
same,GoB hCB1,hCB1; Log [Compound] (M) -12.3979,-7.09
same,Gi1 hCB1,hCB1; Log [Compound] (M) -12.8861,-6.854
same,GoB hCB1,hCB1; Log [Compound] (M) -12.8861,-5.666
same,Gi1 hCB1,hCB1; Log [Compound] (M) -13,-4.779
same,GoB hCB1,hCB1; Log [Compound] (M) -13,-5.6139
same,Gi1 hCB1,hCB1; Log [Compound] (M) cell empty,-2.087
same,GoB hCB1,hCB1; Log [Compound] (M) cell empty,-1.829
same,pEC50 [95% CI],hCB1; hCB1 Gi1,6.0 [5.2 – 6.4]
same,EC50,hCB1,2000 nM
same,EC50,hCB1; read-out: EC50 [95% CI],2060 nM
same,Emax,"hCB1; read-out: Emax [95% CI], hCB1 Gi1",89%
same,Emax,"hCB1; read-out: Emax [95% CI], hCB1 GoB",109%
same,pKi [95% CI],CB1 (rCB1) [2],6.79 [6.5 – 7.0]
